Assay results reported in US10913710B2, “Benzene disulfonamide for the treatment of cancer” (priority 2017, dated 2021).

Experiments:
[1] = molecular target: T1, PDEδ (Homo sapiens (Human), UniProt O43924); experiment: Fluorescence polarization competition binding assay: displacement titration of labeled Atorvastatin probe for KD; conditions: fluorescence polarization assay; activity classes; read-out: KD
Description: Example D.2: Displacement Titrations of Labeled Atorvastatin-Probe for the Determination of KD Values
Displacement Titrations of Labeled Atorvastatin-Probe for the Determination of KD Values:
The purification was followed by size exclusion gel filtration on a Superdex 75 S26/60 column using buffer A (25 mM Tris-HCl, pH 7.5, 150 mM NaCl and 3 mM DTE).

[2] = molecular target: interaction between mCherry-PDE6δ and mCitrine-RheB (Homo sapiens (Human), UniProt O43924); experiment: FLIM-FRET of mCitrine-RheB and mCherry-PDE6δ interaction in living MDCK cells; type: cell-based; conditions: fit of dose-response of interacting fraction α, ± s.e.m., read-out: apparent "in-cell" KD
[3] = test system: mCitrine-KRas in MiaPaCa-2 cells; experiment: KRas localization analysis by confocal microscopy; type: cell-based, human; conditions: 5 μM; MiaPaCa-2 cells ectopically expressing mCitrine-KRas
Description: Panc-TU-1, MiaPaCa-2, PANC-1 and BxPC-3 cell lines were cultured in DMEM supplemented with 10% fetal calf serum, 1% L-glutamine (PAN-Biotech) and 1% non-essential amino acids (PAN-Biotech). The cells were maintained in a humidified incubator at 37° C. and 5% CO2. For microscopy, cells were seeded in four-well Lab-Tek chambers (Thermo Scientific) in DMEM without phenol red, supplemented with 25 mM HEPES. Transfection was performed with either Effectene (Qiagen) or Lipofectamine 2000 (Invitrogen). Confocal images were acquired with a confocal laser-scanning microscope (FV1000, Olympus). For detection of mCitrine-RheB and mCitrine-KRas, the sample was excited using the 488 nm wavelength of an argon laser. Fluorescence signal was collected through an oil immersion objective (×60/1.35 UPlanSApo, Olympus) and spectrally filtered by a band pass filter from 500 nm to 550 nm. For detection of mCherry-PDEδ, a 561 nm diode laser was used for excitation. The fluorescence emission was spectrally filtered by a band pass filter from 600 to 700 nm. Confocal images of cells were segmented into plasma membrane and cytoplasm whereby the plasma membrane segment contained one third of all pixels. The mean intensity of plasma membrane and cytoplasm were normalized to the total mean intensity of each cell at each time point (FIG. 4C).

[4] = test system: MiaPaCa-2 cells; experiment: Real time cell analysis (RTCA) proliferation; type: cell-based, human
Description: (§1) Panc-TU-1, MiaPaCa-2, PANC-1 and BxPC-3 cell lines were cultured in DMEM supplemented with 10% fetal calf serum, 1% L-glutamine (PAN-Biotech) and 1% non-essential amino acids (PAN-Biotech). The cells were maintained in a humidified incubator at 37° C. and 5% CO2. For microscopy, cells were seeded in four-well Lab-Tek chambers (Thermo Scientific) in DMEM without phenol red, supplemented with 25 mM HEPES. Transfection was performed with either Effectene (Qiagen) or Lipofectamine 2000 (Invitrogen). RTCA measurements of Panc-TU-1, MiaPaCa-2, PANG-1 and BxPC-3 cell lines were performed on a Dual Plate xCELLigence instrument (Roche Applied Science, Indianapolis, Ind.). This device measures a dimensionless cell index which is based on impedance. […] After seeding, cells were allowed to settle for 15 min at room temperature before insertion into the xCELLigence instrument in a humidified incubator at 37° C. with 5% CO2. […] The impedance was measured in 15 min intervals for up to 100 h. Assays were performed in triplicates, each containing two technical duplicates. The cell index was normalized to 1 at the time point of drug administration.

[5] = test system: Panc-Tu-I cells; experiment: Real time cell analysis (RTCA) proliferation; type: cell-based, human
Description: as §1

[6] = test system: colorectal cancer cell lines DiFi, HCT-116, Hke3, Hkh2, HT29 and SW480; experiment: Real time cell analysis (RTCA) proliferation of colorectal cancer cell lines; type: cell-based, human
[7] = test system: colorectal cancer cell lines (HCT-116, Hke3, SW480, Hkh2, DiFi, HT29); experiment: Apoptosis / cell viability assay (7-AAD staining, flow cytometry); type: cell-based, human; conditions: all tested cell lines (Hkh2, DiFi, HT29)
Description: Apoptosis assays are performed on a LSR II flow cytometer (BD Bio-science). For this, cells are seeded in 6-well plates with an amount of 2×10^5 cells per well. Cells are treated with different concentrations of compound 19 (Deltasonamide 2) for 24 h. DMSO is used as a control. Subsequently, the supernatant is collected in FACS vials and the cells are washed with 1 mL PBS. Afterwards, cells are detached with 0.5 mL Accutase™ (EMD Millipore Corporation). The detached cells are resuspended in 1 mL PBS and transferred to the respective FACS vials. The vials are centrifuged at 200 g for 5 min. The supernatant is discarded and the cells are washed twice with PBS. Cell pellets are re-suspended in 100 μL PBS containing 5 μL of 7-AAD. Samples are vortexed and incubated in the dark at RT for 15 min. Afterwards, 200 μL PBS are added and the samples are transferred to fresh FACS vials through filter lids. The samples are measured within one hour after transfer using 488 nm as excitation wave length and the emission filter 695/40. The measurements are acquired and gated with the BD FACSDiva™ software.

[8] = test system: human peripheral blood mononuclear cells (hPMPBC); experiment: Cytotoxicity assay with human peripheral blood mononuclear cells; type: cell-based
Description: Cells were incubated with test substances at titrated concentrations ranging between 30 μM and 1.7 nM for 72 h. After the incubation period, the cells were fixed with 10% (wt/vol) trichloroacetic acid and stained for 30 min with sulforhodamine B (SRB) staining solution prior to removing unbound dye by washing repeatedly with 1% (vol/vol) acetic acid. The protein-bound dye is dissolved in 10 mM Tris base solution for OD (optical density) determination at 510 nm using a microplate reader.

[9] = in vitro; conditions: human, Caco-2, pH 6.5
Description: Caco-2 Permeability Assay:
The compound concentration was measured in the receiver as well as the donor well.

[10] = molecular target: T1, PDEδ; experiment: Cellular thermal shift assay / thermal protein profiling in Jurkat cell lysate; conditions: 1 μM
[11] = molecular target: RPL31 (Ribosomal Protein L31) (Homo sapiens (Human), UniProt P62899); experiment: as above; conditions: read-out: shift in melting temperature
[12] = even at submicromolar concentrations

Row | SMILES | Kd [1] [nM] | Kd [2] [nM] | KRas plasma membrane localization [3] | reduction of growth rate ([4]; at 750 nM) | proliferation (RTCA) [4, 12] | reduction of growth ([5]; at 1.5 μM) | proliferation (RTCA) [5, 12] | proliferation (RTCA) ([6]; DiFi, HCT-116, Hke3, Hkh2, HT29 and SW480, even at lower micromolar concentrations) | concentrations showing growth inhibitory effect and reduced cell viability ([6]; cell lines containing oncogenic KRas mutations (HCT-116, Hke3, and SW480)) [µM] | concentration showing unspecific toxicity [7] | concentration up to which hPMBCs proliferation is not impaired [8] [µM] | Papp A→B at 2 h, 10 µM [9] [×10⁻⁶ cm/s] | Papp B→A at 2 h, 10 µM [9] [×10⁻⁶ cm/s] | efflux ratio at 2 h, 10 μM [9] | selectivity of protein engagement (only PDE6δ and RPL31 engaged) ([10]; 5492 proteins identified) | higher signal intensities of soluble PDEδ compared to DMSO controls ([10]; […]) | ΔTm at 1 µM [11] [°C]
1 | CNc1nccc(CN([C@H]2CC[C@H](N)CC2)S(=O)(=O)c2ccc(S(=O)(=O)N(Cc3ccc(Cl)cc3)C3CCCC3)cc2)n1 [Compound 19, N1-((trans)-4-aminocyclohexyl)-N4-(4-chlorobenzyl)-N4-cyclopentyl-N1-((2-(methylamino)pyrimidin-4-yl)methyl)benzene-1,4-disulfonamide] | 1 to 30 | 61 ± 5 | loss of KRas plasma membrane (PM) localization | about 50% | strongly reduced proliferation | about 50% | strongly reduced proliferation | strongly reduced proliferation | 1.5 to 3 | above 6 μM | ≥ 30 | 0.9 | 2.7 | 2.9 |  |  | 
2 | Nc1cc(CN(CC2CCNCC2)S(=O)(=O)c2ccc(S(=O)(=O)N(Cc3ccc(Cl)cc3)C3CCCC3)cc2)ccc1C(=O)O [Compound 22, 2-amino-4-(((4-(N-(4-chlorobenzyl)-N-cyclopentylsulfamoyl)-N-(piperidin-4-ylmethyl)phenyl)sulfonamido)methyl)benzoic Acid] | 1 to 30 |  |  |  |  |  |  |  |  |  |  | 0.9 | 0.6 | 0.6 | very selective inhibitor | 26-28% | 3
